Measured values from a melting point compilation (Tetko et al.; mined from patent text by program, amines drawn as free bases though some values may be those of a salt).

Row | melting point [°C] | SMILES
1 | 192 to 193 | C[C@@H]1S[C@@H](C(=O)O)Cc2cc3c(cc2C1=O)OCO3
2 | 144 to 145 | CCS(=O)(=O)NCC(O)(Cn1cncn1)c1ccc(Cl)cc1Cl (stereo not given)
3 | 134 to 135 | Nc1c(I)cc(Cl)cc1[N+](=O)[O-]
4 | 75 to 76 | CCCC(C#N)(Cn1cncn1)c1ccc(F)cc1 (stereo not given)
5 | 117 | CC(=O)OC1CSC(Oc2cccc(-c3ccnc(F)c3)c2)C(OC(C)=O)C1OC(C)=O (stereo not given)
6 | 158 to 160 | Cc1ccc(-c2c(C)ccn2-c2ccc(S(C)(=O)=O)cc2)cc1
7 | 226 to 227 | O=C(O)c1ccccc1Sc1ccccc1C(=O)O
8 | 212 to 214 | CC(C)CCC1C(=O)NS(=O)(=O)N1C (stereo not given)
9 | 62 to 63.5 | CCCC1NS(=O)(=O)N(CCl)C1=O (stereo not given)
10 | 176 to 178 | COc1cc(C(=O)O)ccc1NC(=O)OC(C)(C)C
11 | 197 to 198 | CCc1nnc(NS(=O)(=O)c2ccc(NC(C)=O)cc2)s1
12 | 77 to 78 | CCCCCCCCCCCCCCCCCNC(=O)O[C@@H]1CCO[C@H]1CO (relative stereo)
13 | 190 to 194 | O=C(Nc1ccccc1)c1cc(Oc2ccc(C(F)(F)F)cc2Cl)ccc1[N+](=O)[O-]
14 | 118 to 120 | CN(C)S(=O)(=O)Oc1cc(-n2c(=O)cc(C(F)(F)F)n(C)c2=O)c(F)cc1Cl
15 | 94 to 95 | CCc1ccc(/C=C/c2nc(COc3ccc(CCCCn4ccnc4CCO)cc3)co2)cc1
16 | 147 to 149 | CC(C)(C)OC(=O)[C@@H]1CC[C@@H]2C=C[C@H]3CCN(C(=O)OC(C)(C)C)[C@@H]3C(=O)N21
17 | 160 to 165 | CC(CN(C)C)On1c(=O)nc(-c2ccc3c(c2)OCO3)c2cc3c(cc21)OCO3 (stereo not given)
18 | 157 to 160 | Nc1ccc(C(=O)c2ccccc2)c(Br)c1
19 | 179 to 181 | Nc1ccc(S(=O)(=O)Nc2cc(Cl)nc(C(F)(F)F)c2)cc1
20 | 151 to 152 | COc1ccc(C(=O)N2c3ccccc3C(N3CCCCc4ccccc43)=CC2C)cc1OC (stereo not given)
21 | 127 to 129 | COC(=O)c1sc(-c2ccc(C)cc2)cc1NC(C)=O
22 | 192 to 195 | O=c1c(-c2ccccc2Cl)coc2cc(OCc3nnn[nH]3)cc(Cl)c12

Row | melting point [°C] | SMILES
23 | 264 to 269 | NCc1ccc(-n2c(-c3cccnc3N)nc3ccc(-c4cn[nH]c4)nc32)cc1
24 | 184 to 186 | COC(=O)C1=C(c2ccccc2)NC(C)=C(C(=O)OC(C)C)C1c1cccc([N+](=O)[O-])c1 (stereo not given)
25 | 53 to 56 | COC(=O)C1=C(C)NC(C)=C(C(=O)OCCN2CCN(c3ccccn3)CC2)C1c1cccc([N+](=O)[O-])c1 (stereo not given)
26 | 209 to 212 | O=C(O)c1cc([N+](=O)[O-])cc2c1CCCC2
27 | > 300 | COc1ccccc1NC(=O)Nc1nc(Nc2ccc(CC(=O)O)cc2)nc(Nc2ccccc2-c2ccccc2)n1
28 | 167 to 169 | O=C1N(Cc2ccc(C(F)(F)F)o2)c2cccc(-c3ccoc3)c2C12COc1cc3c(cc12)CCO3 (stereo not given)
29 | 219 to 221 | CCNC(=O)N(C)Cc1cccc2c1C(=O)N(C1CCC(=O)NC1=O)C2=O (stereo not given)
30 | 48 to 50 | COC(=O)[C@@H]1CSCN1S(=O)(=O)c1ccc(Cl)c(CBr)c1Cl
31 | 63 to 64 | COC1=C(OC)C(=O)C2=C(CCC(CCO)CC2)C1=O
32 | 146 to 148 | CCCCCCCCCCCCCCCCOc1cc(O)c(NC(C)=O)cc1C12CC3CC(CC(C3)C1)C2
33 | 91 to 93 | NCc1cn2ccccc2n1
34 | > 260 | COc1cc2c3c([nH]c2cc1O)-c1ccccc1C3=O
35 | 119 to 123 | O=c1c2ccccc2ccc2cc(F)ccc12
36 | 105 to 107 | CN1C(=O)C2C3CCC(C3)C2(c2cccc(Br)c2)C1=O (stereo not given)
37 | 158 to 161 | O=C(Nc1ccc(Oc2ccc(Cl)cc2)cc1)N1CC(c2ccccc2)=C(c2ccc(Cl)cc2)N1
38 | 165 to 166 | CCC(=O)N1CCC(NC(=O)Nc2cccc(Cl)c2)CC1
39 | 77 to 79 | CC(Cc1c[nH]c2ccccc12)(NC(=O)OC1C2CC3CC(C2)CC1C3)C(=O)NCCC1=CCCCC1 (stereo not given)
40 | 97 to 99 | COc1cc(Nc2c(C#N)cnc3cc(/C=C/CCO[Si](C)(C)C(C)(C)C)c(OC)cc23)c(Cl)cc1Cl
41 | 159 | COc1cc(C)c(C(=O)c2c(Cl)cccc2Cl)cc1Br
42 | 153 to 155 | CC(C)c1cccc(C(C)C)c1NC(=O)CC(=O)C(c1ccccc1)c1ccccc1
43 | 250 to 252 | CCOCc1nc2c(N)nc3cc(-c4cccnc4)ccc3c2n1CCCCS(N)(=O)=O
44 | 120 to 122 | CCOC=Nc1c2oc3ccccc3c2nn1C

Row | melting point [°C] | SMILES
45 | 208 to 209 | COc1ccc(C(=O)Nc2cccc(O)c2NC(=O)c2ccc(OC)cc2)cc1
46 | 89.6 | CC(=O)N1CCN2C(=O)N(c3cc(Cl)cc(Cl)c3)C(=O)C2(Cc2ccc(Br)cc2)C1 (stereo not given)
47 | 127 to 128 | COC(=O)CCn1c(=O)n(CCN2CCN(c3ccccc3OC)CC2)c(=O)c2c(C)scc21
48 | 163 | Oc1cnc(C2CCCCC2)nc1
49 | 144 to 146 | Cc1oc(-c2ccccc2)nc1C(=O)NN
50 | > 300 | CCC(C)NC(C(=O)O)C(C)C (stereo not given)
51 | 107 to 109 | CCCCCCCCCCOc1cc(OCCCOc2ccc(OCc3ccccc3)cc2)cc(C(=O)O)c1
52 | 121 to 122 | Cc1cccc(C)c1N(CC(C)O)C(=O)c1ccccc1 (stereo not given)
53 | 134 to 137 | OCc1ccc2cc(Cl)ccc2c1
54 | 223 | CS(=O)(=O)c1cccc(NC(=O)c2cnn3c(C(F)F)cc(-c4ccc(OC(F)(F)F)cc4)nc23)c1
55 | 131 | CC1C(C(N)=O)CC2CC1C2(C)C (single isomer, unassigned; (+))
56 | 125 to 129 | CC(C)NC(=O)OCC(=O)c1cccc(Br)c1
57 | 165 to 170 | COc1ccc(-c2nc3n(c2-c2ccncc2)CCS3=O)cc1 (stereo not given)
58 | 178 | COC(=O)C1=C(C)Nc2nccn2C1C1CCCCC1 (stereo not given)
59 | 169 | COc1cccc(CCN2C(=O)c3cc(Cl)c(Cl)cc3C2(O)c2ccc(F)cc2)c1 (stereo not given)
60 | 220 to 221 | COc1ccc2c(c1)oc(=O)c1c3ccc(OC)cc3sc21
61 | 258 | CCS(=O)(=O)c1nsc(NC(=O)NC)c1C#N
62 | 190 | O=[N+]([O-])c1ccc(C2NCCc3c2[nH]c2ccccc32)cc1 (stereo not given)
63 | 131 to 132 | C[C@@H](NC(=O)[C@@H](NCc1nccn1C)C(C)(C)C)C(C)(C)C
64 | 105 to 108 | CN1CCN=C1C(O)(c1ccccc1)c1ccccn1 (stereo not given)
65 | 299 | COc1ccc(-c2[nH]nc3c2C(=O)c2c(NC(=O)Cc4ccc(Cl)c(Cl)c4)cccc2-3)cc1

Row | SMILES | melting point [°C]
66 | CCCc1c(C(=O)CC(C)OC)c2ccc(C(N)=O)cc2n1Cc1ccccc1Cl (stereo not given) | 155 to 157
67 | Cc1ccc(S(=O)(=O)OC2CCC3(C)C4CCC5(C)C(=O)CCC5C4CC(O)C3(O)C2)cc1 (stereo not given) | 154 to 156
68 | Cc1cccc(NC(=O)NC2C(=O)N(CC34CC5CC(CC(C5)C3)C4)c3ccccc3N(c3ccccc3)C2=O)c1 (stereo not given) | 244 to 246
69 | OC(CN1CC=C(c2ccccc2)CC1)c1ccc(Cc2ccc(Cl)cc2)cc1 (stereo not given) | 135 to 137
70 | COc1cc(Cl)c(C(=O)c2c(C)ccc(OC)c2OC(=O)Cc2ccccc2)c(Cl)c1 | 106
